Common to all, as to assay type: biochemical
Experiment [1] relates to LPS-induced GTPase activity in membranes isolated from RAW 264.7 cells. Kind of experiment: GTPase assay: effect of compounds on LPS-stimulated GTPase activity in macrophage membranes (release of 32Pi from γ-32P-GTP). Particulars: for relative abilities of purines to stimulate LPS-enhanced GTPase: dose-response studies, rank order; for sensitivity of LPS-stimulated GTPase activity to inhibitor: high concentrations of inhibitor, 0.1 mM ATP and 0.2 mM AMPPNP. The source says: (§1) We sought to directly evaluate the influence of LPS on possible G-protein function by examining agonist-enhanced GTPase activity, which is a hallmark of G-protein action. Moreover, because macrophages are one of the key cell types in the release of toxic mediators following an LPS challenge, we first assessed the capacity of LPS to influence GTPase activity in membranes isolated from RAW 264.7 cells, which is a highly LPS-responsive macrophage cell line. In these studies, GTPase activity was measured using a standard assay. The activity was determined using 2 µM γ-^32P-GTP in the presence of 0.1 mM ATP and 0.2 mM of the non-hydrolyzable ATP analog, AMPPNP, in order to minimize nonspecific nucleotidase activity in the membrane preparations.
The reaction is initiated by the addition of the γ-^32P-GTP and the mixture incubated at 30-37°C for 15 to 30 minutes. The reaction is terminated by the addition of 500µl of 5% trichloroacetic acid and 500µl of 0.1gm/ml acid-activated charcoal in 5% trichloroacetic acid. The samples are centrifuged at 14,000xg for 10 minutes, and a 550µl aliquot of the supernatant is removed for scintillation counting. The supernatant will contain the released ^32Pi. The extent of GTPase inhibition is measured by the decrease in the amount of ^32Pi released from γ-^32P-GTP. Appropriate controls include mixtures with one of the following omitted: (i) test compound, (ii) endotoxin, and (iii) ATP, ADP or AMPPNP.
The membranes are resuspended in 20 mM HEPES (pH 7.4), 1 mM dithiothreitol, 1 mM EDTA and 10 µg leupeptin/ml. Aliquots are stored at -70°C until assayed.

Experiment [2] shares this test system. Description: GTPase assay (release of 32Pi from γ-32P-GTP), LPS-stimulated activity. Particulars: for LPS-stimulated GTPase activity when adenine nucleotide included in the incubation: compared with no added adenine nucleotides.
From the text: as §1, with “preparations. In the preferred practice of the present invention, the ability of a candidate compound to inhibit LPS-induced GTPase is assessed by measuring the release of ^32Pi from γ-^32P-GTP.” for “preparations.”
(§2) Under these conditions, GTPase activation was evident at 100 µg LPS/ml (roughly 6 µM assuming an average MW ∼ 17,000 kDa), and the maximal effect was seen by 300 µg/ml LPS. (2) To show adenosine mucleotide synergism with LPS-stimulated GTPase activity, either 10µM ATP or 30µM ADP replace the 0.1 mM ATP and 0.2 mM AMPPNP of the standard assay described by Cassel et al. and Neer et al.
(§3) In the preferred assay, a candidate compound (.001 - 1000 µM) is dissolved or suspended in 100µl of a reaction buffer containing 20mM HEPES (pH 7.4), 0.01mM ATP or ADP, membranes isolated from RAW 264.7 cells, 2µM γ-^32P-GTP (3-9 X 10cpm/pmol), 5mM MgCl2, 18µM LPS (based on an estimated MW of 17,000 kDa for E. coli 0111:B4 endotoxin), and 250 mM ammonium sulfate. The reaction is initiated by the addition of the γ-^32P-GTP and the mixture incubated at 30-37°C for 15 to 30 minutes. The reaction is terminated by the addition of 500µl of 5% trichloroacetic acid and 500µl of 0.1gm/ml acid-activated charcoal in 5% trichloroacetic acid. The samples are centrifuged at 14,000xg for 10 minutes, and a 550µl aliquot of the supernatant is removed for scintillation counting. The supernatant will contain the released ^32Pi. The extent of GTPase inhibition is measured by the decrease in the amount of ^32Pi released from γ-^32P-GTP. Appropriate controls include mixtures with one of the following omitted: (i) test compound, (ii) endotoxin, and (iii) ATP, ADP or AMPPNP.
(§4) The macrophage-like cell line RAW 264.7 is cultured as described using RPMI 1640 medium supplemented with 10% fetal calf serum (FCS) containing < 0.1 ng/ml LPS. The membranes are resuspended in 20 mM HEPES (pH 7.4), 1 mM dithiothreitol, 1 mM EDTA and 10 µg leupeptin/ml. Aliquots are stored at -70°C until assayed.

For experiment [3], the system named is GTPase activity in membranes isolated from a macrophage (RAW 264.7) cell line. Description: GTPase assay: basal or agonist-stimulated GTPase activity in macrophage membranes.
From the text: as §1, with “preparations. In the preferred practice of the present invention, the ability of a candidate compound to inhibit LPS-induced GTPase is assessed by measuring the release of ^32Pi from γ-^32P-GTP.” for “preparations.”
We first determined the optimal LPS concentration for GTPase stimulation. In all experiments, the LPS dose response curve was quite steep, and with the highest activity occurring around 200-300 µg LPS/ml.
as §2, §3, §4
To assess whether the LPS/ATP-enhanced GTPase is a "low Km" form, which would be expected for a variety of large and small MW G-proteins, as well as for various GAP and ARF-like proteins, as opposed to a "high Km" form, such as a phosphatase, we assayed the GTPase activity using 0.2 and 50 µM GTP essentially as described previously. […] The LPS and ATP stimulated a low Km GTPase activity by ∼30% and 70%, respectively, when added individually. This stimulation of low Km activity was slightly greater than that estimated using the standard assay conditions. […] The LPS stimulation of GTPase activity is enhanced by adenine nucleotides.

Entries after “also recorded” stand apart in the source; their conditions may differ. Like-named read-outs stand apart in the source and are kept apart here.

Regarding `Nc1ncnc2c1ncn2[C@@H]1O[C@H](COP(=O)(O)OP(=O)(O)O)[C@@H](O)[C@H]1O` [ADP], in experiment [1], the “stimulation (potentiation) of LPS-stimulated GTPase activity” value (“stimulation (potentiation)” below) was “potentiated; also recorded: pronounced increase in LPS-stimulated GTPase activity” and the “relative abilities of purines to stimulate LPS-enhanced GTPase” value (from here on “relative abilities of purines”) is recorded as “ATP> ATPγS> ADP> AMPPNP>> β,γ methylene ATP> 2-MeSATP”. Moreover, the “LPS-stimulated GTPase activity when adenine nucleotide included in the incubation” value in experiment [2] was “pronounced increase”.

Turning to `Nc1ncnc2c1ncn2[C@@H]1O[C@H](COP(=O)(O)OP(=O)(O)NP(=O)(O)O)[C@@H](O)[C@H]1O` [AMPPNP], in experiment [1], the “stimulation (potentiation)” value is given as “pronounced increase in LPS-stimulated GTPase activity” and the “relative abilities of purines” value was “ATP> ATPγS> ADP> AMPPNP>> β,γ methylene ATP> 2-MeSATP”. In addition, the “LPS-stimulated GTPase activity when adenine nucleotide included in the incubation” value in experiment [2] is reported as “pronounced increase”.

For the molecule `Nc1ncnc2c1ncn2[C@@H]1O[C@H](COP(=O)(O)O)[C@@H](O)[C@H]1O` [AMP], the “stimulation of LPS-enhanced GTPase activity” value in experiment [1] (at 100 µM) is recorded as “ineffective; also recorded: did not synergistically increase”.

For `Nc1ncnc2c1ncn2[C@@H]1O[C@H](COP(=O)(O)OP(=O)(O)OP(=O)(O)O)[C@@H](O)[C@H]1O` [ATP], in experiment [1], the “stimulation (potentiation)” value is listed as “potentiated; also recorded: pronounced increase in LPS-stimulated GTPase activity” and the “relative abilities of purines” value is on record as “ATP> ATPγS> ADP> AMPPNP>> β,γ methylene ATP> 2-MeSATP”. Moreover, the “ATP concentration of striking synergistic stimulation of GTPase activity” value in experiment [1] (ATP and LPS added together, biphasic) was in the range of 1 to 10 µM. Besides, the “increase in activity of the GTPase” value in experiment [1] (ATP in the presence of LPS) was “three-fold”. Moreover, in experiment [1] (at 1 µM), the “stimulation of LPS-enhanced GTPase activity” value is on record as “active”. For the same molecule, in experiment [3] (ATP alone, no LPS, biphasic stimulation), the “ATP concentration of maximum stimulation of GTPase activity” value was 1 to 10 µM. The “combined effects of LPS and ATP: stimulation calculated for the low Km activity” value in experiment [3] (LPS plus ATP) is 228 % of basal activity. In experiment [3] (LPS plus ATP, 2 µM GTP, 0.1 mM ATP, 0.2 mM AMPPNP), the “combined effects of LPS and ATP: stimulation measured using standard assay conditions” value was 208 % of basal activity. In addition, in experiment [3] (added individually, ATP 10 µM), the “stimulation of low Km GTPase activity” value is listed as 70%. Moreover, the “LPS-stimulated GTPase activity when adenine nucleotide included in the incubation” value in experiment [2] is recorded as “pronounced increase”.

As for `Nc1ncnc2c1ncn2[C@@H]1O[C@H](COP(=O)(O)OP(=O)(O)OP(O)(O)=S)[C@@H](O)[C@H]1O` [ATPγS], the “relative abilities of purines” value in experiment [1] is recorded as “ATP> ATPγS> ADP> AMPPNP>> β,γ methylene ATP> 2-MeSATP”.

As to `CC(C)Cn1c(=O)n(C)c(=O)c2[nH]cnc21` [IBMX], the “inhibition of LPS-stimulated GTPase activity” value (“inhibition” below) in experiment [1] was “did not alter the LPS activation of the GTPase”. For the same molecule, in experiment [1] (at 100 µM), the “stimulation of LPS-enhanced GTPase activity” value is “did not synergistically increase”. For the same molecule, in experiment [2] (P1 purinoreceptor antagonist), the “effect on the LPS activation of the GTPase” value is “did not alter”.

For `CCN1C(=O)C=CC1=O` [N-ethyl-maleimide], the results for the “inhibition” value in experiment [1] and in experiment [1] (in the presence of ADP) were “not antagonized” and “did not block”, respectively.

Turning to `NC(=O)c1ccc[n+]([C@@H]2O[C@H](COP(=O)([O-])OP(=O)(O)OC[C@H]3O[C@@H](n4cnc5c(N)ncnc54)[C@H](O)[C@@H]3O)[C@@H](O)[C@H]2O)c1` [NAD], the “stimulation of LPS-enhanced GTPase activity” value in experiment [1] (at 100 µM) is “did not synergistically increase”.

On to `O=c1ccn([C@@H]2O[C@H](COP(=O)(O)OP(=O)(O)OP(=O)(O)O)[C@@H](O)[C@H]2O)c(=O)[nH]1` [UTP], for which the “stimulation of LPS-enhanced GTPase activity” value in experiment [1] (at 100 µM) was “did not synergistically increase”.

As for `Nc1ncnc2c1ncn2[C@@H]1O[C@H](CO)[C@@H](O)[C@H]1O` [adenosine], the “stimulation of LPS-enhanced GTPase activity” value in experiment [1] (at 100 µM) was “ineffective; also recorded: did not synergistically increase”.

For the molecule `CO/C1=C\C(C)=C\[C@@H](C)[C@@H](O)[C@@H](C)C/C(C)=C/C=C/[C@H](OC)[C@@H]([C@@H](C)[C@@H](O)[C@H](C)[C@@]2(O)C[C@@H](O)[C@H](C)[C@@H](C(C)C)O2)OC1=O` [bafilomycin], the entries for the “inhibition” value in experiment [1] and in experiment [1] (in the presence of ADP) were “not antagonized” and “did not block”, respectively.

`C[C@@H]1O[C@@H](O[C@H]2C[C@@H](O)[C@]3(CO)[C@H]4[C@H](O)C[C@]5(C)[C@@H](C6=CC(=O)OC6)CC[C@]5(O)[C@@H]4CC[C@]3(O)C2)[C@H](O)[C@H](O)[C@H]1O` [ouabain]: the “inhibition” value in experiment [1] is given as “not antagonized”; in experiment [1] (in the presence of ADP), “did not block”. Also, in experiment [1], the “sensitivity of LPS-stimulated GTPase activity to inhibitor” value is reported as “insensitivity”.

Take `O=[N+]([O-])c1ccc(OP(=O)(O)O)cc1` [p-nitrophenyl-phosphate]: in experiment [1], the “inhibition” value is given as “not antagonized” and the “sensitivity of LPS-stimulated GTPase activity to inhibitor” value was “insensitivity”.

Consider `[Na+].[Na+].[Na+].[O]=[V]([O-])([O-])[O-]` [sodium orthovanadate], for which the “inhibition” value in experiment [1] is “did block LPS activation”.

For `Cn1c(=O)c2[nH]cnc2n(C)c1=O` [theophylline], in experiment [1] (at 100 µM), the “stimulation of LPS-enhanced GTPase activity” value is given as “did not synergistically increase”.

For the molecule `Nc1ncnc2c1ncn2[C@@H]1O[C@H](COP(=O)(O)OP(=O)(O)CP(=O)(O)O)[C@@H](O)[C@H]1O` [β,γ methylene ATP], the “relative abilities of purines” value in experiment [1] is listed as “ATP> ATPγS> ADP> AMPPNP>> β,γ methylene ATP> 2-MeSATP”.

Regarding Triton X-100, the “inhibition” value in experiment [1] is “did not substantially interfere”. In experiment [3] (no LPS), the “effect on basal GTPase activity” value is “did reduce basal GTPase activity”.

phosphatidic acid: the “inhibition” value in experiment [1] was “nor inhibit LPS-stimulated GTPase activity”. In addition, the “effect on basal GTPase activity” value in experiment [3] (no LPS) is “did not stimulate basal GTPase activity”.

For phosphatidylcholine, in experiment [1], the “inhibition” value was “nor inhibit LPS-stimulated GTPase activity”. For the same molecule, the “effect on basal GTPase activity” value in experiment [3] (no LPS) is recorded as “did not stimulate basal GTPase activity”.

As for phosphatidylserine, in experiment [1], the “inhibition” value is given as “nor inhibit LPS-stimulated GTPase activity”. For the same molecule, the “effect on basal GTPase activity” value in experiment [3] (no LPS) is on record as “did not stimulate basal GTPase activity”.
